From patent US5484771A, “Antiherpes peptide derivatives having a 1,4-dioxo-C, N-terminus” (priority 1994, dated 1996) come the findings set out here.

A word on the IC50: it is the concentration needed to halve the response being measured. Low readings indicate inhibition by little substance, high ones a need for much substance.

Where “and” joins values, the source holds several entries; their conditions need not be identical. Identical values can stand only once. Numbered stars: 1 amine (or outer) side, 2 acyl side, 3 side chain; on linkers, the order of the positions; unused ones are H or OH. Peptide text beside a SMILES is read from it. * marks the point of attachment. Suc = O=C(CCC(=O)[*:2])[*:1]; Pyrrolidide = C1CCN(*)C1; NHiPr = CC(C)N*

The target of this assay is T1, HSV-1 ribonucleotide reductase (Human herpesvirus 1, UniProt P08543).
T1 construct: HSV-1 ribonucleotide reductase (partially purified) was obtained from quiescent BHK-21/C13 cells infected with strain F HSV-1 virus; made in house; host or cells: quiescent BHK-21/C13 cells infected with HSV-1 strain F (10 pfu/cell); partially purified
T1 sequence (P08543 whole entry): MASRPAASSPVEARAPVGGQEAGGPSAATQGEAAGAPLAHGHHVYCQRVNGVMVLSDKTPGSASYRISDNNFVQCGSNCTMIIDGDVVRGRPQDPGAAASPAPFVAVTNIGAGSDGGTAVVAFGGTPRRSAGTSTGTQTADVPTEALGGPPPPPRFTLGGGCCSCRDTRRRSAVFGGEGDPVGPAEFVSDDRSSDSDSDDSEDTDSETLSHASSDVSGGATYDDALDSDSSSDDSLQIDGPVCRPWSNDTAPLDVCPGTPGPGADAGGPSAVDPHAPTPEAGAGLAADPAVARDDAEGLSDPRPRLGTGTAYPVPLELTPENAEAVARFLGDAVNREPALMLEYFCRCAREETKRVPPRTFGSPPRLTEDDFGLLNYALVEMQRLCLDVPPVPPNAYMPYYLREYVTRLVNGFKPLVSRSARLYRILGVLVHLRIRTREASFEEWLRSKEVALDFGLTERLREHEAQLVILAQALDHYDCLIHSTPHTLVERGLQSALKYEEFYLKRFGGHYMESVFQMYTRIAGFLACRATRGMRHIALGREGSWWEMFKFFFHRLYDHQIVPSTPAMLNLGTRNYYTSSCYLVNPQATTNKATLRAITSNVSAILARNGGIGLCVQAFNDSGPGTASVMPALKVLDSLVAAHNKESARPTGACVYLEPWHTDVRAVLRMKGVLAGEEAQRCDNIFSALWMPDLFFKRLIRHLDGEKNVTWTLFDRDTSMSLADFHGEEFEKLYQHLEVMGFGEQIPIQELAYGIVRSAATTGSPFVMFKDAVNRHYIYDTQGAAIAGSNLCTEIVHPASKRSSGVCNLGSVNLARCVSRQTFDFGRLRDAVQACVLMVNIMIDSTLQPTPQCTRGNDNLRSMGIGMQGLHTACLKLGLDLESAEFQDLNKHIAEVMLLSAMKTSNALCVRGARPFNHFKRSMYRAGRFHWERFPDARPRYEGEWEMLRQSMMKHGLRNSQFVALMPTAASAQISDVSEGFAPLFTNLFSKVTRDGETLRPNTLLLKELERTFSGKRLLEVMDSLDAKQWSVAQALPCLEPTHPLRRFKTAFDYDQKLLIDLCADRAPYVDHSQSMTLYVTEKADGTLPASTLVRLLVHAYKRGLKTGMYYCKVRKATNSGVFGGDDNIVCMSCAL
Nature of the assay: biochemical. As to conditions: IC50, concentration producing 50% of the maximal inhibition of enzyme activity; partially purified enzyme; mean of four assays. The text has this: HSV-1 ribonucleotide reductase (partially purified) was obtained from quiescent BHK-21/C13 cells infected with strain F HSV-1 virus at 10 plaque forming units/cell as described by E. A. Cohen et at., J. Gem Virol., 66, 733 (1985).
By following the procedure described by P. Gaudreau et at., J. Biol, Chem., 262, 12413 (1987), the assay results listed in the following table were obtained. The assay result for each exemplified compound of formula 1 is expressed as the concentration of the compound producing 50% of the maximal inhibition (IC50) of enzyme activity. The number of units of the enzyme preparation used in each assay was constant, based on the specific activity of the enzyme preparation. The results are relative to the activity obtained in control experiments without the test compound and represent the mean of four assays that varied less than 10% with each other.
In the case of `CC(C)C[C@H](NC(=O)[C@H](CC(=O)O)NC(=O)[C@H](CC(=O)N1CCCC1)NC(=O)CCC(=O)NC1CCCCC1)C(=O)O` [Cyclohexylamino-COCH2 CH2 CO-Asp(pyrrolidino)-Asp-Leu-OH], it took 22 µM to reach half-maximal inhibition (IC50).

In turn, `CCC(CC)NC(=O)c1ccccc1C(=O)N[C@@H](CC(=O)N1CCCC1)C(=O)N[C@@H](CC(=O)O)C(=O)N[C@@H](CC(C)C)C(=O)O` [Et2 CHNHCO-(1,2-phenylene)-CO-Asp(pyrrolidino)-Asp-Leu-OH] registered an IC50 of 6.5 µM.

As to `CCC(CC)NC(=O)C1CCCCC1C(=O)N[C@@H](CC(=O)N1CCCC1)C(=O)N[C@@H](CC(=O)O)C(=O)N[C@@H](CC(C)C)C(=O)O` (stereo partly drawn) [Et2 CHNHCO-(cis-1,2-cyclohexanediyl)-CO-Asp(pyrrolidino)-Asp-Leu-OH], the IC50 was 3.7 µM and 2.21 µM.

As for `CCC(CC)NC(=O)/C=C\C(=O)N[C@@H](CC(=O)N1CCCC1)C(=O)N[C@@H](CC(=O)O)C(=O)N[C@@H](CC(C)C)C(=O)O` [Et2 CHNHCO-(cis-CH=CH)-CO-Asp(pyrrolidino)-Asp-Leu-OH], the half-inhibitory concentration (IC50) turned out to be 21 µM.

Consider `CCC(CC)NC(=O)CCC(=O)N(C)[C@@H](CC(=O)N1CCCC1)C(=O)N[C@@H](CC(=O)O)C(=O)N[C@@H](CC(C)C)C(=O)O` [Et2 CHNHCOCH2 CH2 CO-(N-Me)-Asp(pyrrolidino)-Asp-Leu-OH], for which the midpoint of inhibition, the IC50, lay at 2 µM.

Regarding `CCC(CC)NC(=O)CCC(=O)N[C@@H](CC(=O)N1CCC(C)CC(C)(C)C1)C(=O)N[C@@H](CC(=O)O)C(=O)N[C@@H](CC(C)C)C(=O)O` (stereo partly drawn) [Et2 CHNHCOCH2 CH2 CO-Asp(3,3,5-trimethylhexahydroazepino)-Asp-Leu-OH], the midpoint of inhibition, the IC50, lay at 12 µM.

As to `CCC(CC)NC(=O)CCC(=O)N[C@@H](CC(=O)OCCCCCl)C(=O)N[C@@H](CC(=O)O)C(=O)N[C@@H](CC(C)C)C(=O)O` [Et2 CHNHCOCH2 CH2 CO-Asp(4-chloro-butyloxy)-Asp-Leu-OH], the IC50 was 20 µM.

Take `CCCCCCCCN(C)C(=O)C[C@H](NC(=O)CCC(=O)NC(CC)CC)C(=O)N[C@H](C(=O)N[C@@H](CC(C)C)C(=O)O)C1(C(=O)O)CCCC1` [Et2 CHNHCOCH2 CH2 CO-Asp(N-Me-N-octyl)-Asp(cyPn)-Leu-OH]: the midpoint of inhibition, the IC50, lay at 0.73 µM.

Regarding `CCC(CC)NC(=O)CCC(=O)N[C@@H](CC(=O)N1CCC1)C(=O)N[C@@H](CC(=O)O)C(=O)N[C@@H](CC(C)C)C(=O)O` [Et2 CHNHCOCH2 CH2 CO-Asp(azetidino)-Asp-Leu-OH], half-maximal inhibition (IC50) was put at 9.1 µM.

In turn, `CCC(CC)NC(=O)CCC(=O)N[C@@H](CC(=O)OC1CCCCC1)C(=O)N[C@@H](CC(=O)O)C(=O)N[C@@H](CC(C)C)C(=O)O` [Et2 CHNHCOCH2 CH2 CO-Asp(cyclohexyloxy)-Asp-Leu-OH] registered a half-inhibitory concentration (IC50) of 75 µM.

As to `CCC(CC)NC(=O)CCC(=O)N[C@@H](CC(=O)N1CCCC1)C(=O)N[C@H](C(=O)NCCC(C)(C)C)C(C)(C)C(=O)O` [Et2 CHNHCOCH2 CH2 CO-Asp(pyrrolidino)-Asp(diMe)-NH[CH2 CH2 C(CH3)3 ]], the concentration for half-maximal inhibition (IC50) was found to be 75 µM.

For the molecule `CCCCCC[C@H](C)OC(=O)C[C@H](NC(=O)CCC(=O)NC(CC)CC)C(=O)N[C@H](C(=O)N[C@@H](CC(C)C)C(=O)O)C1(C(=O)O)CCC1` [Et2 CHNHCOCH2 CH2 CO-Asp[1(S)-methylheptyloxy]-Asp(cyBu)-Leu-OH], the midpoint of inhibition, the IC50, lay at 4.4 µM.

For `CCC(CC)NC(=O)CCC(=O)N[C@@H](CC(=O)N(C)CCO)C(=O)N[C@@H](CC(=O)O)C(=O)N[C@@H](CC(C)C)C(=O)O` [Et2 CHNHCOCH2 CH2 CO-Asp[N(CH3)CH2-CH2 OH]-Asp-Leu-OH], the IC50 stood at 11 µM.

As for `CCC(CC)NC(=O)CCC(=O)N[C@@H](CC(=O)C1CCCC1)C(=O)N[C@@H](CC(=O)O)C(=O)N[C@@H](CC(C)C)C(=O)O` [Et2 CHNHCOCH2 CH2 CO-NHCH-(2-cyclopentyl-2-oxoethyl)-CO-Asp-Leu-OH], the IC50 was determined as 3.4 µM.

`CCCCCCCC(=O)C[C@H](NC(=O)CCC(=O)NC(CC)CC)C(=O)N[C@@H](CC(=O)O)C(=O)N[C@@H](CC(C)C)C(=O)O` [Et2 CHNHCOCH2 CH2 CO-NHCH-(2-oxononyl)-CO-Asp-Leu-OH] showed a half-maximal inhibitory concentration (IC50) of 9 µM.

`CCC(CC)NC(=O)CCC(=O)N[C@@H](CC(=O)N1CCCC1)C(=O)N[C@H](C(=O)N[C@H](CO)CC(C)C)C1(C(=O)O)CCC1` [Et2 CHNHCOCH2 CH2,CO-Asp(pyrrolidino)-Asp(cyBu)-(L-leucinol)]: the IC50 came out at 5 µM.

In turn, `CCC(CC)NC(=O)CCC(=O)N[C@@H](CC(=O)N(C)CCOC(C)=O)C(=O)N[C@@H](CC(=O)O)C(=O)N[C@@H](CC(C)C)C(=O)O` [Et2 CHNHCOCH2 CH 2 CO-Asp[N(CH3)CH2-CH2 OCOCH3 ]-Asp-Leu-OH] had a half-maximal inhibitory concentration (IC50) of 9.9 µM.

Take `CC(C)CNC(=O)CCC(=O)N[C@@H](CC(=O)N1CCCC1)C(=O)N[C@@H](CC(=O)O)C(=O)N[C@@H](CC(C)C)C(=O)O` [Me2 CHCH2 NHCOCH2 CH2 CO-Asp(pyrrolidino)-Asp-Leu-OH]: the IC50 turned out to be 75 µM.

In turn, `CC(C)C[C@H](NC(=O)[C@H](CC(=O)O)NC(=O)[C@H](CC(=O)N1CCCC1)NC(=O)CCC(=O)NC(C)C)C(=O)O` [Me2 CHNHCOCH2 CH2 CO-Asp(pyrrolidino)-Asp-Leu-OH] ({NHiPr-Suc}-Asp(Pyrrolidide)-Asp-Leu-OH) returned an IC50 of 18 µM.

Molecule `CCC(CC)NC(=O)CCC(=O)N[C@@H](CC(=O)N1CCCC1)C(=O)N[C@@H](CC(=O)O)C(=O)N[C@@H](CC(C)C)C(=O)O` [Title Compound of Example 10, Et2 CHNHCOCH2 CH2 CO--Asp(pyrrolidiono)--Asp-Leu--OH] came in with an IC50 of 2.9 µM.

`CCC(CC)NC(=O)C[C@H](C(=O)N[C@@H](CC(=O)N1CCCC1)C(=O)N[C@H](C(=O)N[C@@H](CC(C)(C)C)C(=O)O)C1(C(=O)O)CCCC1)C(C)(C)C` [Title Compound of Example 11, Et2 CHNH--COCH2 CH[(S)-C(CH3)3]CO--Asp(pyrrolidino)--Asp(cyPn)-γMeLeu--OH]: the IC50 worked out at 0.17 µM.
